Laboratory results as given in patent EP2662361A1, “Pyrazol indanyl carboxamides” (Bayer CropScience AG, priority 2012, dated 2013).

Assay: physchem
Assay type: physicochemical
Conditions: reversed-phase c18 hplc, pH 2.7
Description: The logP values were measured in accordance with EEC Directive 79/831 Annex V.A8 by HPLC (High Performance Liquid Chromatography) using reversed-phase columns (C 18) by the following methods: • [a] The LC-MS determination in the acidic range is effected at pH 2.7 with 0.1% aqueous formic acid and acetonitrile (contains 0.1 % formic acid) as eluents; linear gradient from 10 % acetonitrile to 95 % acetonitrile.

## CC1c2cccc(NC(=O)c3cn(C)nc3C(F)F)c2CC1(C)C (stereo not drawn) [compound 5]
  chromatographic logP: 3.53

## CC(C)C1Cc2cccc(NC(=O)c3cn(C)nc3C(F)F)c2C1 (stereo not drawn) [compound 3]
  chromatographic logP: 3.77

## CC(C)CC1Cc2cccc(NC(=O)c3cn(C)nc3C(F)F)c2C1 (stereo not drawn) [compound 4]
  chromatographic logP: 4.14

## Cn1cc(C(=O)Nc2cccc3c2CC(O)C3)c(C(F)F)n1 (stereo not drawn) [compound 1]
  chromatographic logP: 1.42

## CC(C)OC1Cc2cccc(NC(=O)c3cn(C)nc3C(F)F)c2C1 (stereo not drawn) [compound 2]
  chromatographic logP: 2.71

## CC1Cc2c(NC(=O)c3cn(C)nc3C(F)F)cccc2C1(C)C (stereo not drawn) [compound 6]
  chromatographic logP: 3.55
